Data on one substance can be found in patent publication US8110365B2, “Compositions and methods for detecting and treating renal injury and inflammation” (Rhode Island Hospital, priority 2006, dated 2012).

Entries after “also recorded” stand apart in the source; their conditions may differ.

For one assay, the system named is NFkB target genes. The assay is described as follows: Real time RT-PCR of NFkB target genes in TNF-a stimulated HKC cells. The format is cell-based, human. How it is done: Total RNA was extracted from approximately 1×10^6 cultured HKC cells using TRIzol solution (Invitrogen, Carlsbad, Calif.) according to the instructions specified by the manufacturer. RNA was then diluted to 3μg/μl in RNase free distilled water. The first strand cDNA was prepared using 3 μg RNA, Superscript RT reverse transcriptase (Invitrogen) and oligo (dT) primer according to the manufacture's instruction. Quantitative real time PCR was carried out on a Stratagene Mx4000® multiplex quantitative PCR system (Stratagene, La Jolla, Calif.) using primers specific for human MCP-1, RANTES, IkBa, Bcl-2 and GAPDH. All reactions were performed in triplicate with Brilliant® SYBR® Green QPCR Master Mix (Stratagene). Fluorescence values of SYBR Green I dye, representing the amount of product amplified at that point in the reaction, were recorded in real time at both the annealing step and the extension step of each cycle. The Ct value, defined as the point at which the fluorescence signal was statistically significant above background, was calculated for each amplicon in each experimental sample using Stratagene Mx4000 software. This value was then used to determine the relative amount of amplification in each sample by interpolating from the standard curve. Transcript level of each specific gene was normalized to GAPDH amplification.
In general terms: Quantitative PCR measures a nucleic acid by following its amplification.

The next assay deals with remnant kidney rats. The assay is described as follows: Rat remnant kidney model (5/6 nephrectomy). The conditions noted are these: for inflammation and injury in remnant kidneys: rats, treatment for 2 wk beginning 2 wk after nephrectomy. The format is in vivo. The source says: We examined the molecular mechanism of HGF's anti-inflammatory actions in a model of CKD. Beginning 2 wk after ⅚^th nephrectomy, rats received exogenous HGF, neutralization of endogenous HGF by daily injection of an anti-HGF antibody, or preimmune IgG for 2 wk. […] There were parallel alterations in endothelial activation and inflammation, marked by de novo E-selectin expression and leukocyte adhesion to renal vascular endothelium. […] Thus, the GSK3b inhibitor HGF has direct anti-inflammatory effects via suppression of NF-KB and endothelial inflammation.

The subject of the next assay is NF-κB. Description: NF-κB luciferase reporter gene assay in endothelial cells. The format is cell-based, human. Conditions: 24 h. How it is done:
To explore the role of GSK3b in HGF suppression of inflammation, we examined the effect of HGF on NF-κB activation in endothelial cells (FIG. 8A˜C) and TEC (FIG. 8D). […] (FIG. 8A). To determine whether HGF modulation of NF-κB transcriptional activity alters target gene (E-selectin) levels, DNA affinity precipitation assay was carried out at 4 h after treatment. Proteins in cell lysates were pulled down by biotin labeled oligonucleotides with the sequence of the E-selectin promoter region spanning the κB elements. […] To further examine the effect of HGF on NF-κB binding to the E-selectin gene in vivo, chromatin immunoprecipitation (ChIP) was applied at 4 h after treatments (FIG. 8C).
For orientation: A reporter such as luciferase makes a cellular process visible.

The next assay deals with NFkB p65. The assay is described as follows: ChIP of NFkB p65 at MCP-1 and RANTES promoters in HKC cells. The format is cell-based, human. The source says: The in situ interaction between NFκB and its target genes in HKC cells was examined by ChIP assay (35) using a commercially available kit (Upstate Biotechnology, Charlottesville, Va.) according to manufacturer's instructions. Briefly, HKC cells were fixed and crosslinked with 4% formaldehyde. After collection of cell pellets and sonication, aliquots of the samples were set aside as input fraction and the rest subjected to immunoprecipitation using an anti-NFκB p65 antibody or preimmune IgG and Protein A agarose used to pull down the immune complexes. After elution, precipitated chromatin as well as the input fraction was heated at 65° C. to reverse crosslinks and the DNA extracted with Qiagen PCR purification kit (Qiagen, Valencia, Calif.). DNA sequences spanning the κB responsive elements in the promoter region were amplified by PCR using specific primers (MCP-1, forward 5′-[…]-3′ (SEQ ID NO: 1), reverse 5′-[…]-3′(SEQ ID NO: 2), Genbank accession number Y18933; RANTES, forward 5′-[…]-3′ (SEQ ID NO: 3), reverse 5′-[…]-3′ (SEQ ID NO: 4), Genbank accession number S64885) for a number of cycles in the exponential phase as estimated in pilot experiments. DNA samples extracted from input fractions were amplified in parallel for normalization. PCR products resolved in ˜1.5 to 2% agarose gels were photographed under ultraviolet light.

The target of another assay is T1, GSK3b (Rattus norvegicus, UniProt P18266).
T1 construct: from tissue; host or cells: rat kidney (homogenate)
The assay is described as follows: Renal GSK3b expression in the kidney. The assay is classed as in vivo. How it is done:
In certain embodiments, measurement of GSK level and activity in tissue samples is carried out as follows. Total expression of GSK3b, is measured by western immunoblot in kidney homogenates using a commercially available mouse monoclonal antibody against rat GSK3b (Santa Cruz Biotechology). Densitometric analysis of immunoblot bands is used to compare protein abundance of GSK3b in remnant kidneys and controls at each time point.

T1 sequence (P18266 whole entry): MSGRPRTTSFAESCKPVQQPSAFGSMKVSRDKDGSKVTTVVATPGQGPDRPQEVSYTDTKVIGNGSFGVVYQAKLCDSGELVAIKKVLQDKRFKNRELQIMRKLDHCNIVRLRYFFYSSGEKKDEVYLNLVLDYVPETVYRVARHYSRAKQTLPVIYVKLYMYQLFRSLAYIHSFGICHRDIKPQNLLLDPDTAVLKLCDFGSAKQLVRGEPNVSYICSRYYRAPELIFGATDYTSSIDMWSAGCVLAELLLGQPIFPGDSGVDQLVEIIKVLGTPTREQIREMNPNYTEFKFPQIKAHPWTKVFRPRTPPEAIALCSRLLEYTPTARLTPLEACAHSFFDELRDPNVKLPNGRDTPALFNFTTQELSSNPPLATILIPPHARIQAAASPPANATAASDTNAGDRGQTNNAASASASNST

In the case of “HGF: Human recombinant HGF (R&D systems); induces inhibitory phosphorylation of GSK3b”, the “suppressive effect of HGF on TNF-a induced MCP-1 and RANTES mRNA expression” value in the assay with NFkB target genes (HKC cells expressing S9A) is on record as “obliterated in cells expressing S9A; also recorded: obliterated in cells expressing the mutant uninhibitable GSK3b”. Moreover, the “suppressive effect of HGF on TNF-a induced MCP-1 and RANTES mRNA expression” value in the assay on NFkB target genes (HKC cells transfected with EV or WT) is “present in cells transfected with EV or WT”. Also, in the assay on NFkB target genes (HKC cells, 12 h), the “TNF-a induced mRNA expression of IkBa and Bcl-2” value is given as “not remarkably affected”; the “TNF-a induced mRNA expression of MCP-1 and RANTES” value was “strikingly attenuated TNF-a induced mRNA expression of MCP-1 and RANTES; also recorded: selectively regulates TNF-a induced transcription of specific NFkB target genes”. Moreover, the “sequestration of circulating macrophages in the remnant kidney” value with remnant kidney rats (exogenous HGF) is given as “markedly diminished sequestration of circulating macrophages in the remnant kidney”. Moreover, in the assay on remnant kidney rats, the “inflammation and injury in remnant kidneys” value was “ameliorated; also recorded: reduces inflammatory infiltration, tubular and glomerular injury”. Also, the “inflammation and injury in remnant kidneys” value with remnant kidney rats (listed as hepatocyte growth factor) is on record as “profoundly ameliorating gross renal inflammation”. In addition, in the assay with remnant kidney rats (remnant kidney rats), the “expression of metalloproteinase-9 (MMP-9)” value is recorded as “increasing expression of metalloproteinase-9 (MMP-9)”; the “expression of transforming growth factor-beta (TGF-β)” value was “did not reduce expression of transforming growth factor-beta (TGF-β)”; the “levels of PAI-1 and TIMP-1” value was “decreasing levels of plasminogen activator inhibitor-1 (PAI-1) and tissue inhibitor of metalloproteinase-1 (TIMP-1)”; the “renal / tubular expression of proinflammatory molecules (MCP-1, RANTES, E-selectin)” value is given as “decreased staining to normal”. The interstitial injury result in the assay with remnant kidney rats (remnant kidney rats with established renal injury) is “reduced interstitial injury”. For the same substance, in the assay on remnant kidney rats (remnant kidney rats, continuous infusion for two weeks), the “decrease of interstitial macrophages” value was “more than 50%”. In addition, the “renal / tubular expression of proinflammatory molecules (MCP-1, RANTES, E-selectin)” value in the assay with remnant kidney rats (remnant kidney rats, listed as hepatocyte growth factor) was “reduced renal expression of proinflammatory molecules such as RANTES, and E-selectin”. In addition, the “TNF-α induced NF-κB reporter gene (transcription) activity” value in the assay on NF-κB was “suppressed TNF-a induced NF-kB reporter gene activity; also recorded: significantly reduced TNF-α induced NF-κB transcription activity; also recorded: blunts NF-kB activation”. Besides, the “TNF-a induced recruitment of NFkB p65 to MCP-1 and RANTES promoters” value in the assay on NFkB p65 was “substantially attenuated by concomitant HGF treatment; also recorded: markedly attenuated”. In addition, the “renal GSK3b expression” value in the assay with GSK3b is “markedly decreased GSK3b expression”.
